Holding throughout (format): cell-based, human
Assay [1] deals with γ-globin mRNA in K562 cells. The assay is described as follows: γ-globin mRNA level in K562 cells by real-time PCR (TaqMan). The note with it: 0.3-μM-added group, cultured three days. As for the experimental part:
K562 cells (1×10^5 cells/mL) were seeded into each well of 6-well plate (4 mL/well). A solution of compound 1 (×1000) was added to the plate (4 μL/well), and cells were cultured in a CO2 incubator (37° C., 5% CO2) for three days. The cultured cells were collected, and RNA was prepared from the cells by means of a RNeasy mini column (product of Qiagen). Subsequently, cDNA was synthesized from the thus-obtained RNA by use of reverse transcriptase. Through real-time PCR employing a TaqMan probe according to a protocol of Applied Bio-Systems, γ-globin mRNA level was determined (ABI PRISM7900HT System, product of Applied Bio-Systems). In Example 2, the following primers and probe were employed (SEQ ID NOs: 1 to 3): […]
forward primer (GGTTCTTTGACAGCTTTG, SEQ ID NO: 1);
reverse primer (CCTTCTTGCCATGTGCCTT, SEQ ID NO: 2); and
fluorescence probe (CCTCTGCCTCTGCCATC, SEQ ID NO: 3).
These primers and probe are custom synthesis products of Qiagen.
In general terms: In qPCR the cycle at which signal appears reflects the starting amount.

The subject of assay [2] is K562 cells. The assay is described as follows: Measurement of the amount of hemoglobin produced by K562 cells (porphyrin fluorescence). The note with it: for hemoglobin production promoting action: FIG. 1. As for the experimental part:
Compound 1 was synthesized through a method disclosed in International publication WO 03/02703 (Example 13) and dissolved in dimethyl sulfoxide (DMSO). The concentration of the solution was adjusted as appropriate through dilution. An equiamount of DMSO was employed as a control solution.
Cells of human proerythroblast cell line K562 (obtained from ATCC) were added to a complete culture medium (RPMI-1640 medium containing 10% fetal bovine serum), and the resultant cells (1×10^5 cells/mL) were seeded into each well of 24-well plate (2 mL/well). A solution of compound 1 (×1000) was added to the plate (2 μL/well), and cells were cultured in a CO2 incubator (37° C., 5% CO2) for three days. The medium was renewed, and cells were further cultured for three days.
The cultured cells were collected and counted. The number of cells in each sample was adjusted to 3×10^5, and the intensity of the fluorescence attributed to a porphyrin ring was measured, to thereby determine the hemoglobin level. Specifically, cells collected through centrifugation were suspended in 2M oxalic acid (500 μL), and the suspension was boiled for 30 minutes and cooled. Fluorescence intensity was measured by means of a fluorescence microplate reader (Spectra MAX Gemini EM, product of Molecular Device) ([…]).

The subject of assay [3] is K562 cells. Nature of the assay: HbF-producing cells (F cells) in K562 cell population by flow cytometry with FITC-labeled anti-HbF antibody. The note with it: 0.1-μM compound, cultured three days. As for the experimental part: K562 cells (1×10^5 cells/mL) were seeded into each well of 24-well plate (2 mL/well). A solution of compound 1 (×1000) was added to the plate (2 μL/well), and cells were cultured in a CO2 incubator (37° C., 5% CO2) for three days. The cultured cells were collected through centrifugation and treated for 10 minutes with phosphate buffered saline (PBS) containing 0.05% glutaraldehyde/0.1% bovine serum albumin (BSA). The liquid was removed from the mixture through centrifugation, to thereby obtain pellets. Subsequently, 0.1% BSA/PBS was added to the separated pellets, and the same treatment was performed three times, to thereby wash the cells. The thus-washed cells were subjected, for five minutes, to permeation treatment with 0.1% BSA/PBS containing 1% Triton X-100 (0.5 mL) and washed once again. The resultant cells were suspended in 0.1% BSA/PBS (80 μL). FITC-labeled anti-HbF antibody (10 μg/mL, product of Caltag) (5 μL) was added to the suspension, and the mixture was allowed to react at room temperature in the dark for 15 minutes, whereby HbF present in the cells was immunostained. In a similar manner as described above, the stained cells were washed and suspended in 0.1% BSA/PBS containing 1% formaldehyde (0.5 mL). The suspension was analyzed through a method known in the art, by means of a flow cytometer (EPICS XL, product of Beckman Coulter, Inc.).
For orientation: A flow cytometer gives signals particle by particle.

Counter-ions that a name gives are not always drawn.

With `COc1ccc(N(Cc2cncc(-c3cc(OC)c(OC)c(OC)c3)c2)C2CCN(Cc3ccnc(-c4cc(OC)c(OC)c(OC)c4)c3)CC2)cc1` [compound 1, 4-[N-(4-Methoxyphenyl)-N-[[5-(3,4,5-trimethoxyphenyl)pyridin-3-yl]methyl]amino]-1-[[2-(3,4,5-trimethoxyphenyl)pyridin-4-yl]methyl]piperidine], the “amount of γ-globin mRNA produced (compound-non-added group = 1)” value in assay [1] was “about four fold”. Further, in assay [2] (0.3-μM-added group, cultured 3 + 3 days), the “amount of hemoglobin produced (compound-non-added group = 100%)” value is recorded as 435%. Further, in assay [2], the “hemoglobin production promoting action” value is recorded as “promotes production of hemoglobin in a concentration (dose)-dependent manner”. In assay [3], the “number of HbF-expressing cells (F cells)” value was “almost doubled”.

Take `COc1cc(C(=O)OCCCN2CCCN(CCCOC(=O)c3cc(OC)c(OC)c(OC)c3)CC2)cc(OC)c1OC` [dilazep hydrochloride, Dilazep hydrochloride, reference compound]: in assay [2], the “hemoglobin production promoting action” value is “did not exhibit hemoglobin production promoting action”.

Source of the values: patent US20100016358A1, “GAMMA-GLOBIN INDUCER” (KOWA CO., LTD., priority 2006, published 2010).
